Measurements taken from PMC7413254 (Nature Communications, 2020).
Values joined by “and” are separate entries in the source; they are usually repeats but may differ in a detail not shown here. Identical values can stand only once. Like-named read-outs stand apart in the source and are kept apart here.

How the values were obtained:
C2^GC03 parasites = assay: P. falciparum proliferation assay; assay type: cell-based; conditions: Plasmodium falciparum
Experimental: (§1) Parasite proliferation was measured in 96-well plates using a fluorescent DNA-intercalating dye[68],[69]. Synchronous ring-stage parasite cultures (~1% haematocrit and 1% parasitaemia) were incubated with different concentrations of the test compound for 72 h at 37 °C and under reduced O2 conditions. The assay was terminated by freezing and thawing the samples, after which 100 μL of SYBR Safe DNA Gel Stain (Molecular Probes; 0.2 μL/mL) in a lysis buffer (20 mM Tris-HCl, 5 mM EDTA, 0.008% (w/v) saponin and 0.08% (v/v) Triton X-100; pH 7.5) was added to each well. The fluorescence from each well was measured using a Tecan Infinite M1000 PRO microplate reader (excitation wavelength 490 nm; emission wavelength 520 nm). The fluorescence values for the wells containing the highest concentration of the compound were averaged and this value was then subtracted from each of the well values obtained for that 96-well plate. The level of parasite proliferation in the presence of each compound concentration was expressed as a percentage of the proliferation measured in the absence of the compound. The IC50s were determined in SigmaPlot Windows Version 11.0 by a least-squares fit of the equation y = a/[1 + ([compound]/IC50)^c] to the data, where y is the percent parasite proliferation, a is the maximum change in the percent parasite proliferation, and c is a fitted constant. In all cases, five independent experiments were performed (on different days), and within each experiment measurements were averaged from three replicates.

3D7 strain = assay: P. falciparum proliferation assay; assay type: cell-based, Plasmodium falciparum
Experimental: as §1

7G8 strain = assay: P. falciparum proliferation assay; assay type: cell-based, Plasmodium falciparum
Experimental: as §1

C4^Dd2 parasites = assay: P. falciparum proliferation assay; assay type: cell-based, Plasmodium falciparum
Experimental: as §1

C6^7G8 parasites = assay: P. falciparum proliferation assay; assay type: cell-based, Plasmodium falciparum
Experimental: as §1

Dd2 strain = assay: P. falciparum proliferation assay; assay type: cell-based, Plasmodium falciparum
Experimental: as §1

non-expressing oocytes = assay type: cell-based, Xenopus laevis
Experimental: (§2) Measurements of the cis-inhibition of [^3H]CQ transport via PfCRT^Dd2 or PfCRT^Ecu1110 by a test solute (data presented in Fig. 1 and Supplementary Data 1,2) were performed on oocytes three days post-cRNA-injection[15],[21]. Ten oocytes were washed twice with the relevant ND96 buffer. The assay commenced with the addition of ND96 buffer supplemented with 0.25 μM [^3H]CQ, 15 μM unlabelled CQ, and the unlabelled solute under study (at a concentration specified in the figure legends and Supplementary Data 1, 2). The assay was terminated by removing the reaction buffer and washing the oocytes with ice-cold ND96 buffer. The oocytes were lysed in 10% (w/v) sodium dodecyl sulfate (SDS) and the radioactivity accumulated within each oocyte was measured with a MicroBeta^2 microplate liquid scintillation analyser (PerkinElmer).
(§3) Measurements of the uptake or efflux of a number of other radiolabelled compounds (Fig. 3k; Supplementary Fig. 3) were performed using the methods described above for [^3H]CQ and [^3H]VF-6, respectively.

PfNT1 = target: T1, PfNT1 (Plasmodium falciparum, UniProt Q8IDM6); assay type: cell-based
T1 construct: expressed in transfected cells; host or cells: Xenopus laevis oocytes (stage V-VI), cRNA-injected
T1 sequence (Q8IDM6 whole entry): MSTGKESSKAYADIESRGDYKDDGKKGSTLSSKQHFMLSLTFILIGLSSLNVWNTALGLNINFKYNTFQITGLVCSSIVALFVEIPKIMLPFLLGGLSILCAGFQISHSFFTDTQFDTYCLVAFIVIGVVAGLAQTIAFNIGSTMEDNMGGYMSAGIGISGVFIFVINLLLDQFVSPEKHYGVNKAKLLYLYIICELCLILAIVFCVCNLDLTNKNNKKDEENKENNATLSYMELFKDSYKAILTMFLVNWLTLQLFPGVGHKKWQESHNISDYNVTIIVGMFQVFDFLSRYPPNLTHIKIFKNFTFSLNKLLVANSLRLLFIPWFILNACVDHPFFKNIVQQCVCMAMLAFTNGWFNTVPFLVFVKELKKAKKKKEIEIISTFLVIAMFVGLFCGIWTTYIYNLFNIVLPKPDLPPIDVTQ
Experimental: as §2, §3

[1] = 72 h, read-out: IC50 (μM), parasite proliferation, + 1 μM VP, SEM
[2] = C2GC03, 72 h, 37 °C, SYBR Safe, mean ± SEM, n = 5, read-out: IC50 (μM), parasite proliferation, Control
[3] = Plasmodium falciparum, 3D7, 72 h, 37 °C, SYBR Safe, mean ± SEM, n = 5, read-out: IC50 (μM), parasite proliferation, Control
[4] = read-out: IC50 (μM), parasite proliferation, + 1 μM VP, SEM
[5] = Plasmodium falciparum, 72 h, read-out: IC50 (μM), parasite proliferation, Control, SEM
[6] = read-out: IC50 (μM), parasite proliferation, + 1 μM VP, 7G8, + 1 μM verapamil, 72 h, mean ± SEM, n = 5
[7] = Plasmodium falciparum, DD2, C4Dd2, 72 h, 37 °C, SYBR Safe, mean ± SEM, n = 5, read-out: IC50 (μM), parasite proliferation, Control
[8] = Plasmodium falciparum, C67G8, 72 h, 37 °C, SYBR Safe, mean ± SEM, n = 5, read-out: IC50 (μM), parasite proliferation, Control
[9] = read-out: IC50 (μM), parasite proliferation, + 1 μM VP, C67G8, + 1 μM verapamil, 72 h, mean ± SEM, n = 5

Row | Compound | IC50 (C2^GC03 parasites; [1]) [µM] | IC50 (C2^GC03 parasites; [2]) [µM] | IC50 (3D7 strain; [3]) [µM] | IC50 (3D7 strain; [4]) [µM] | IC50 (7G8 strain; [5]) [µM] | IC50 (7G8 strain; [6]) [µM] | IC50 (C4^Dd2 parasites; [7]) [µM] | IC50 (C6^7G8 parasites; [8]) [µM] | IC50 (C6^7G8 parasites; [9]) [µM] | IC50 (C4^Dd2 parasites; read-out: IC50 (μM), parasite proliferation, + 1 μM VP, C4Dd2, + 1 μM verapamil, 72 h, mean ± SEM, n = 5) [µM] | IC50 (Dd2 strain; Plasmodium falciparum, DD2, 72 h, read-out: IC50 (μM), parasite proliferation, Control, SEM) [µM] | IC50 (Dd2 strain; read-out: IC50 (μM), parasite proliferation, + 1 μM VP, Dd2, + 1 μM verapamil, 72 h, mean ± SEM, n = 5) [µM] | [3H]hypoxanthine transport into the oocyte, non-expressing oocytes (non-expressing oocytes) | [3H]hypoxanthine transport into the oocyte, PfNT1 (PfNT1) [% PfNT1]
1 | CC(C)(C)NC(=O)[C@@H]1CN(Cc2cccnc2)CCN1C[C@@H](O)C[C@@H](Cc1ccccc1)C(=O)N[C@H]1c2ccccc2C[C@H]1O [Indinavir, indinavir] | 1.2 ± 0.8 | 4.2 ± 0.2 | 4.1 ± 0.1 | 2.1 ± 0.8 | 2.5 ± 0.2 | 0.5 ± 0.06 | 2.2 ± 0.1 | 1.1 ± 0.05 | 0.4 ± 0.02 | – | – | – | – | –
2 | Cc1c(O)cccc1C(=O)N[C@@H](CSc1ccccc1)[C@H](O)CN1C[C@H]2CCCC[C@H]2C[C@H]1C(=O)NC(C)(C)C [Nelfinavir, nelfinavir] | 4.6 ± 0.3 | 13.1 ± 0.8 | 15.3 ± 1.2 | 5.6 ± 0.8 | 7.3 ± 0.6 | 3.1 ± 0.3 | 4.1 ± 0.1 | 6.2 ± 0.3 | 1.4 ± 0.1 | 0.7 ± 0.03 | 5.7 ± 0.5 | 0.5 ± 0.02 | – | –
3 | O=c1[nH]cnc2nc[nH]c12 [[3H]hypoxanthine] | – | – | – | – | – | – | – | – | – | – | – | – | 12.63 % PfNT1 and 13.63 % PfNT1 and 15.33 % PfNT1 and 10.43 % PfNT1 and 11.43 % PfNT1 | 100
